# Where no end group is shown, it is not given here.
# Tests used:
# [1] = system: proMMP-2; assay: Gelatin zymography of HUVEC conditioned media; assay type: cell-based, Human
# Protocol: Zymography. Zymography is a technique generally used to analyze the activity of matrix metalloproteinases (MMPs) in biological samples. It involves the electrophoretic separation of proteins under denaturing (Sodium Dodecyl Sulfate (SDS)) but non-reducing conditions through a polyacrylamide gel containing gelatin (for example, 10% gel containing 1 mg/ml gelatin for MMP-9 and MMP-2 assays). The resolved proteins are re-natured by exchanging SDS with a non-ionic detergent such as Triton X-100 and the gel is incubated in an incubation buffer for activation of MMP-2 and MMP-9 (for example at 37° C. for 18 hrs). The gel is stained with Coomassie blue and the MMP-2 and MMP-9 bands may be visualized as clear bands against a blue background (i.e., the MMPs degrade the gelatin and are visualized as clear bands; pro MMP-2 is 68 kDa and pro-MMP-9 is 92 kDa). These bands can be quantified using densitometry. For example, prior to stimulation, quiescent HUVEC were serum-starved for 16 h in the presence or absence of PCK3145 or PD98059 and then stimulated with VEGF. The conditioned media were collected 24 h after stimulation, and clarified by centrifugation. Identical volume of conditioned media were mixed with non reducing Laemmli sample buffer and subjected to 7.5% SDS-polyacrylamide gels containing 1 mg/ml gelatin (Sigma). The gels were then incubated for 30 min at room temperature twice in 2.5% (v/v) Triton X-100 and rinsed five times in doubly distilled water. The gels were incubated at 37° C. for a further 18 h in 200 mM NaCl/5 mM CaCl2/0.02% (v/v) Brij-35/50 mM Tris/HCl buffer (pH 7.6), then stained with 0.1% Coomassie Brilliant Blue R-250, followed by destaining in 10% (v/v) acetic acid/30% (v/v) methanol in water. Gelatinolytic activity was detected as unstained bands on a blue background.
# The effect of the PCK3145 derivative (SEQ ID NO.:7) on MMP extracellular levels was thus assessed by gelatin-zymography in the conditioned media of serum-starved HUVEC. After 16 hours of starvation, HUVEC were stimulated with VEGF in the presence or not of the PCK3145 derivative. […]
# [2] = system: HUVEC; assay: Matrigel endothelial cell tube formation assay; assay type: cell-based, Human; settings: HUVEC on Matrigel, 0-300 μg/ml, serum-free media, 24 hours
# Protocol: Matrigel endothelial cell tube formation assay Matrigel (12.5 mg/ml) was thawed at 4° C., and 50 μl were quickly added to each well of a 96-well plate and allowed to solidify for 10 min at 37° C. […] The formation of capillary-like structures was examined microscopically and pictures (50×) were taken using a Retiga 1300 camera and a Zeiss Axiovert S100 microscope. The extent to which capillary-like structures formed in the gel was quantified by analysis of digitized images to determine the thread length of the capillary-like network, using a commercially available image analysis program (Northern Eclipse).
# Matrigel endothelial cell tube formation assay. […] The extent to which capillary-like structures formed in the gel was quantified by analysis of digitized images using a commercially available image analysis software (Northern Eclipse) (25).
# This three dimensional ECM model assay provides physiologically relevant environment for studies of cell morphology, biochemical function, and gene expression in endothelial cells (EC) that can be modulated for instance by tumor growth factors or hypoxic culture conditions. […] The extent of capillary-like structures formation (density and size of structures) can be quantified by analysis of digitized images to determine the relative size and area covered by the tube-like network, using an image analysis software (Un-Scan-it, Empix Imaging). […]
# [3] = system: ERK; assay: Intrinsic effect on ERK phosphorylation (Western blot); assay type: cell-based
# Protocol: The induction of the MAPK pathway by the PCK3145 derivative is further confirmed by the rapid and transient induction of ERK phosphorylation between 5-10 minutes (FIG. 8B) and is shown to be dose-dependent (FIG. 8C). Finally, the effects of the PCK3145 derivative were also compared to those of a scrambled peptide.
# [4] = system: CD44; assay: CD44 cell surface shedding (Western blot of conditioned media); assay type: cell-based; settings: serum-starved U-87, 300 ug/ml, 24 hours
# Protocol: Decreased cell migration and adhesion on HA was observed when U-87 cells were pretreated with the PCK3145 derivative. This can be interpreted as either a potential downregulation of CD44 expression at the cell surface or by a potential cell surface shedding. The latter hypothesis was tested by incubating serum-starve U-87 cells for 24 hours with the PCK3145 derivative (300 ug/ml), a concentration known to antagonize MMP secretion. The conditioned media was then TCA-precipitated and Westernblotting an immunodetection for a 75 kDa immunoreactive protein using the anti-CD44 antibody was performed. […] This effect is also shown in parallel with MT1-MMP-transfected cells. Such effect has been already reported by many groups and is established as one of the MT1-MMP-mediated functions in the regulation of the ECM adhesion. […] This induction has subsequently been reproduced below. Altogether, these observations provide a rational for the diminished cell migration/adhesion to HA.
sequence,measurement,setting,value
"EWQTDNCETCTCYET (cysteine pairing not given here) [PCK3145 derivative, PCK3145 derivative with acetylaminomethyl groups on the three cysteines]",inhibition of VEGF-induced proMMP-2 secretion,"[1]; HUVEC, 300 μg/ml",approximately 50%
same,downregulation of basal proMMP-2 levels in the extracellular media,"[1]; serum-starved HUVEC, 24 hours treatment",approximately 35%
same,capillary-like structure formation (tubulogenesis),[2],negatively affects tubulogenesis
same,"induction of ERK phosphorylation, dose dependence",[3]; dose-response,dose-dependent
same,time of rapid and transient induction of ERK phosphorylation,[3]; time-course,5 to 10 min
same,CD44 cell surface shedding,[4],increased

# Reference: patent US20080200393A1, “Method and Composition For Treating Angiogenesis and For Preventing Cancer Progression and Metastasis Comprising a Prostate Secretory Protein (Psp94) Family Member” (Ambrillia Biopharma Inc., priority 2004, published 2008)
